# From patent US20190315711A1 (eXIthera Pharmaceuticals, Inc., priority 2016, published 2019)
# How the values were obtained:
# Factor Xa = target: T1, Factor Xa (Homo sapiens, UniProt P00742); experiment: Dose response assay for protease inhibitors: Factor Xa; format: biochemical; details: ratio versus Factor XIa
# T1 construct: Factor Xa; 0.2 μM in 50% glycerol (9.2 μg/mL)
# Experimental: (§1) • Assay buffer: 20 mM Hepes, pH 7.4; 150 mM NaCl; 0.02% Tween 20 • Compounds: 10 mM stocks in DMSO • Substrate: 20 mM Glp-Pro-Arg-AMC, 25 mg/2.3 mL H2O (store at +4° C.) [Factor XIa, thrombin, and trypsin] • 20 mM Pro-Phe-Arg-AMC (Bachem I-1295), 25 mg/2.2 mL H2O or Boc-Leu-Gly-Arg-AMC (Bachem I-1105), 25 mg/2.07 mL H2O (store at +4° C.) [Factor Xa] • Enzyme: Factor XIa; 0.25 M in 50% glycerol (20 μg/mL) • Trypsin; 0.2 μM in 50% glycerol (4.8 μg/mL) • Thrombin; 0.2 μM in 50% glycerol (7.34 μg/mL) • Factor Xa; 0.2 μM in 50% glycerol (9.2 μg/mL)
# (§2) • 1. Dilute the substrate to 100 μM in assay buffer (30 μL/6 mL). The enzyme is diluted to 0.5 nM just prior to use (12 L/6 mL for Factor XIa; 15 μL/6 mL for all of the rest.) • 2. Pipette 50 μL of substrate into each well of the 96 well (12×8) microtiter plate. (Column 1 is used as the 100% activity control and receives no compound, and Column 12 is the blank and receives no enzyme.) Add an additional 46 μL to column 2. • 3. Pipette 4 μL of each compound into the appropriate well in column 2 of the plate (unknowns assayed in triplicate, standard assayed in duplicate). The final compound concentration will be 1/50th of the stock. • 4. Serially two-fold dilute the compound by mixing the sample in column 2, removing 50 μL to the next well (column 3), mix and remove to column 4, etc. until column 11. After mixing column 11, remove 50 μL and discard. • 5. Pipette 50 μL of buffer into column 12. Initiate the reaction by adding 50 μL of enzyme solution to each well of columns 1-11 as rapidly as possible. • 6. Read the plate in a spectrophotometer (SpectraMax) at 30° C., wherein each well is measured every 60 s for 30 min. For Factor Xa assays, each well is measured every 1 min for a total of 60 min. • 7. For Factor XIa assays, the compounds are assayed, in duplicate, at 3 different starting concentrations, 20, 2, and 0.2 μM; 1:10, 1:100, and 1:1000 dilution of 10 mM stock or at 2, 0.2, and 0.02 μM; 1:100, 1:1000, and 1:10,000 dilution of 10 mM stock. Data for each concentration are combined for graphing and data fitting. • 8. Data can be used both for estimation of IC50 and for estimation of Kon.
# human Factor XIa = human Factor XIa (Homo sapiens, UniProt P03951); experiment: Factor XIa enzyme inhibition assay (dose response, fluorogenic AMC substrate); format: biochemical; set-up: Enzyme: Factor XIa; details: purified enzyme; substrate 50 μM, enzyme 0.25 nM; read-out: hFXIa IC50
# How it was run: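 Fluorogenic assay in 20 mM Hepes pH 7.4, 150 mM NaCl, 0.02% Tween 20 with 0.25 nM enzyme and 50 μM Glp-Pro-Arg-AMC (final). Fluorescence read every minute for 30 min at 30 °C after serial two-fold compound dilution; IC50 from four-parameter Hill fit of dose-response curves.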
# [1] = Aqueous solubility in PBS pH 7.4; format: physicochemical; details: phosphate buffered saline, aqueous buffer, kinetic from dmso stock, PBS pH 7.4, room temperature
# Experimental: The following procedure was used to determine the aqueous solubility of a test compound in phosphate buffered saline (PBS—NaCl 137 mM, KCl 2.7 mM, Na2HPO4 8.1 mM, KH2PO4 1.5 mM, pH 7.4) in 96-well plate format by HPLC-UV/VIS analysis. The test compound was prepared at 200 μM in PBS from a 10 mM DMSO stock solution. The final DMSO concentration was 2%. The PBS buffer samples were mixed thoroughly followed by incubation at room temperature for 24 h. At the end of the incubation, the PBS buffer samples were centrifuged and supernatants analyzed by HPLC. The aqueous solubility (μM) of the test compound in PBS was determined by comparing the peak area of the principal peak in the calibration standard (200 μM) with the peak area of the corresponding peak in each of the PBS samples. The range of the assay was approximately 0.5 μM to 200 μM. The reference compounds used in each assay were metoprolol, rifampicin, ketoconazole, phenytoin, haloperidol, simvastatin, diethylstilbestrol, and tamoxifen ranking from fully soluble (200 μM) to poorly soluble (<1 μM).
# Trypsin = target: T2, Trypsin (Bos taurus, UniProt P00760); experiment: Dose response assay for protease inhibitors: trypsin; format: biochemical; details: ratio versus Factor XIa
# T2 construct: gene PRSS1
# T2 sequence (P00760 24-246): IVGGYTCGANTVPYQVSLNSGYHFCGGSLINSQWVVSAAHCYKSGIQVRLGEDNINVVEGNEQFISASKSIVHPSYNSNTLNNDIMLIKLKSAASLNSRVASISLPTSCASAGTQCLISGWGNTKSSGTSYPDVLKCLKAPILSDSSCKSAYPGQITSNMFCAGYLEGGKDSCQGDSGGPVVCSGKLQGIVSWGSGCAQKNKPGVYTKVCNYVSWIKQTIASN
# Experimental: as §1, §2
# Sequence of human Factor XIa (P03951 388-625 limits assumed): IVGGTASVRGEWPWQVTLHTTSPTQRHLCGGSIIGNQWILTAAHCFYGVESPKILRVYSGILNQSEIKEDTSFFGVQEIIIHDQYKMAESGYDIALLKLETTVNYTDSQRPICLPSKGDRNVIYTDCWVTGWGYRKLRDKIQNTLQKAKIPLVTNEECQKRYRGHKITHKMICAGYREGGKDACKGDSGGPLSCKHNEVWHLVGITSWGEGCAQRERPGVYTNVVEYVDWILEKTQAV
# Sequence of human Factor XIa (P03951 19-387 partner limits assumed): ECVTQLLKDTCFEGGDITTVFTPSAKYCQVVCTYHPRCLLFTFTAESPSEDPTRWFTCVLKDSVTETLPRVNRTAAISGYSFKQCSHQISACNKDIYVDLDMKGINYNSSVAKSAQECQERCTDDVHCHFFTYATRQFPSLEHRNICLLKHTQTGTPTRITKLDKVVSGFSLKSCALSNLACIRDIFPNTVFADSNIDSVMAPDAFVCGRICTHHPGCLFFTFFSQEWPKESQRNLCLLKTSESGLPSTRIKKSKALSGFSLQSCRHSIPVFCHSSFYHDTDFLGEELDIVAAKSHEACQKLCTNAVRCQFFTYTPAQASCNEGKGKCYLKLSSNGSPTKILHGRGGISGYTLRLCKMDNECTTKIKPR
# T1 sequence (P00742 235-488 limits assumed): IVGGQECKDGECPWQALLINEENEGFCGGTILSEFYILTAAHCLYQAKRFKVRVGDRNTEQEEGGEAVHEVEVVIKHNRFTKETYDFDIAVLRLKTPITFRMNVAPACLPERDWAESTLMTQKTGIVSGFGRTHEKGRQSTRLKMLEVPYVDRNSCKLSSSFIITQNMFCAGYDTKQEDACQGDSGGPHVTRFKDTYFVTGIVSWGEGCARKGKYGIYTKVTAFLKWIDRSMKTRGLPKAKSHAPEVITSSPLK
# T1 sequence (P00742 41-179 partner limits assumed): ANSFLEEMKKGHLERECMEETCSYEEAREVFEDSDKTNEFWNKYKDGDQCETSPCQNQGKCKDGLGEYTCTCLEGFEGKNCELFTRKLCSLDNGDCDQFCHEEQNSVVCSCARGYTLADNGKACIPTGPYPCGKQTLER
Structure (SMILES),FXa/FXIa (selectivity ratio) (Factor Xa),IC50 (human Factor XIa),solubility at 24 h [1],Ratio: Trypsin/FXIa (Trypsin)
Cc1ccccc1N(C)C(=O)[C@@H]1[C@@H](Cc2ccnc(N)c2)C(=O)N1C(=O)N[C@@H](C1CCCCC1)C(F)(F)F [Compound 15],H (“H” indicates 101-1000),0.01 to 0.1 µM,10 to 100 µM,G (“G” indicates 1-100)
CN(C(=O)[C@@H]1[C@@H](Cc2ccnc(N)c2)C(=O)N1C(=O)N[C@@H](C1CCCCC1)C(F)(F)F)c1cccnc1 [Compound 17],H (“H” indicates 101-1000),0.01 to 0.1 µM,> 100 µM,G (“G” indicates 1-100)
CN(C(=O)[C@@H]1[C@@H](Cc2ccnc(N)c2)C(=O)N1C(=O)N[C@@H](C1CCCCC1)C(F)(F)F)c1ccncc1 [Compound 18],I (“I” indicates >500),< 0.01 µM,> 100 µM,G (“G” indicates 1-100)
CN(C(=O)[C@@H]1[C@@H](Cc2ccnc(N)c2)C(=O)N1C(=O)N[C@@H](C1CCCCC1)C(F)(F)F)c1cncnc1 [Compound 19],H (“H” indicates 101-1000),< 0.01 µM,> 100 µM,G (“G” indicates 1-100)
CN(C(=O)[C@@H]1[C@@H](Cc2ccnc(N)c2)C(=O)N1C(=O)N[C@@H](C1CCCCC1)C(F)(F)F)c1ncccn1 [Compound 21],I (“I” indicates >500),< 0.01 µM,> 100 µM,G (“G” indicates 1-100)
CN(C(=O)[C@@H]1[C@@H](Cc2ccnc(N)c2)C(=O)N1C(=O)N[C@@H](C1CCCCC1)C(F)(F)F)c1cccc(F)c1 [Compound 22],H (“H” indicates 101-1000),< 0.01 µM,10 to 100 µM,G (“G” indicates 1-100)
CCN(C(=O)[C@@H]1[C@@H](Cc2ccnc(N)c2)C(=O)N1C(=O)N[C@@H](C1CCCCC1)C(F)(F)F)c1ccccc1 [Compound 24],H (“H” indicates 101-1000),0.01 to 0.1 µM,10 to 100 µM,G (“G” indicates 1-100)
CC[C@@H](NC(=O)N1C(=O)[C@H](Cc2ccnc(N)c2)[C@H]1C(=O)N(C)c1ccncc1)C1CCCCC1 [Compound 25],I (“I” indicates >500),< 0.01 µM,> 100 µM,G (“G” indicates 1-100)
CC[C@@H](NC(=O)N1C(=O)[C@H](Cc2ccnc(N)c2)[C@H]1C(=O)N(C)c1ccccc1)C1CCCCC1 [Compound 27],I (“I” indicates >500),< 0.01 µM,> 100 µM,G (“G” indicates 1-100)
CN(C(=O)[C@@H]1[C@@H](Cc2ccnc(N)c2)C(=O)N1C(=O)N[C@@H](C1CCCCC1)C1CC1)c1ccccc1 [Compound 36],I (“I” indicates >500),< 0.01 µM,> 100 µM,G (“G” indicates 1-100)
CC[C@@H](NC(=O)N1C(=O)[C@H](Cc2ccnc(N)c2)[C@H]1C(=O)N(CC)c1ncccn1)C1CCCCC1 [Compound 39],I (“I” indicates >500),< 0.01 µM,,G (“G” indicates 1-100)
CC[C@@H](NC(=O)N1C(=O)[C@H](Cc2ccnc(N)c2)[C@H]1C(=O)N(C)c1ccncc1)c1ccccc1 [Compound 42],I (“I” indicates >500),< 0.01 µM,> 100 µM,G (“G” indicates 1-100)
CC[C@@H](NC(=O)N1C(=O)[C@H](Cc2ccnc(N)c2)[C@H]1C(=O)N(C)c1ccccc1)c1cccnc1 [Compound 44],I (“I” indicates >500),< 0.01 µM,> 100 µM,G (“G” indicates 1-100)
CC[C@@H](NC(=O)N1C(=O)[C@H](Cc2ccnc(N)c2)[C@H]1C(=O)N(C)c1ccccc1)C1CC1 [Compound 46],H (“H” indicates 101-1000),0.01 to 0.1 µM,> 100 µM,G (“G” indicates 1-100)
C[C@@H](NC(=O)N1C(=O)[C@H](Cc2ccnc(N)c2)[C@H]1C(=O)N(C)c1ccccc1)C1CCCCC1 [Compound 49],I (“I” indicates >500),< 0.01 µM,> 100 µM,G (“G” indicates 1-100)
CCC[C@@H](NC(=O)N1C(=O)[C@H](Cc2ccnc(N)c2)[C@H]1C(=O)N(C)c1ccccc1)C1CCCCC1 [Compound 50],I (“I” indicates >500),< 0.01 µM,> 100 µM,G (“G” indicates 1-100)
CN(C(=O)[C@@H]1[C@@H](Cc2ccnc(N)c2)C(=O)N1C(=O)N[C@@H](C1CCCCC1)C1CC1)c1ccncc1 [Compound 52],I (“I” indicates >500),< 0.01 µM,> 100 µM,G (“G” indicates 1-100)
CC[C@@H](NC(=O)N1C(=O)[C@H](Cc2ccnc(N)c2)[C@H]1C(=O)N(C)c1ccncc1)c1cccnc1 [Compound 59],I (“I” indicates >500),< 0.01 µM,> 100 µM,G (“G” indicates 1-100)
CC[C@@H](NC(=O)N1C(=O)[C@H](Cc2ccnc(N)c2)[C@H]1C(=O)N(C)c1ncccn1)c1cccnc1 [Compound 61],H (“H” indicates 101-1000),< 0.01 µM,> 100 µM,G (“G” indicates 1-100)
CN(C(=O)[C@@H]1[C@@H](Cc2ccnc(N)c2)C(=O)N1C(=O)N[C@@H](C1CC1)C(F)(F)F)c1ccncc1 [Compound 77],H (“H” indicates 101-1000),0.01 to 0.1 µM,> 100 µM,
CN(C(=O)[C@@H]1[C@@H](Cc2ccnc(N)c2)C(=O)N1C(=O)N[C@@H](C1CC1)C(F)(F)F)c1ncccn1 [Compound 78],I (“I” indicates >500),0.01 to 0.1 µM,> 100 µM,
CC[C@@H](NC(=O)N1C(=O)[C@H](Cc2ccnc(NC)c2)[C@H]1C(=O)N(C)c1ncccn1)C1CCCCC1 [Compound 80],I (“I” indicates >500),< 0.01 µM,> 100 µM,G (“G” indicates 1-100)
CC[C@@H](NC(=O)N1C(=O)[C@H](Cc2ccnc(N)c2)[C@H]1C(=O)N(C)c1ncncn1)C1CCCCC1 [Compound 81],I (“I” indicates >500),< 0.01 µM,> 100 µM,H (“H” indicates 101-1000)
